Test results as given in US12624018B1, “Inhibitors of RIPK2 and medical uses thereof” (Odyssey Therapeutics, Inc., priority 2022, dated 2026).

Target: T1, RIPK2 enzyme (Homo sapiens, UniProt O43353)
T1 construct: purchased Carna 09-128
Assay: RIPK2 inhibition (ADP-Glo Kinase Assay)
Format: biochemical
Settings: RIPK2 5 nM, ATP 150 μM, MBP substrate, read-out: RIPK2 IC50
Outline: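 Human RIPK2 (5 nM) preincubated with compound 30 min at room temperature in 50 mM HEPES pH 7.5, 10 mM MgCl2, 2 mM DTT, 1 mM EGTA, 0.01% Brij-35, 0.05% BSA; native swine MBP as substrate. ADP formed quantified by ADP-Glo luminescence; percent inhibition relative to DMSO and no-enzyme controls.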

T1 sequence (O43353 1-299 limits assumed): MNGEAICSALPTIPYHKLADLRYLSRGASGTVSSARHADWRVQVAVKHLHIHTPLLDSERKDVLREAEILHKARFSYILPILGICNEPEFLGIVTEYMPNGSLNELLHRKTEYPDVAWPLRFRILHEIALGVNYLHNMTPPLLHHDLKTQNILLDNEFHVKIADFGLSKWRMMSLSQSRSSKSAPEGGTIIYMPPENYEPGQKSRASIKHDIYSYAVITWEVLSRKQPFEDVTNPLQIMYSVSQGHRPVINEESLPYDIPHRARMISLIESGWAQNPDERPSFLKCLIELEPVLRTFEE

IC50 [nM] | SMILES
< 2.5 | Cc1cc(CC(=O)Nc2cnn(C3CCC3)c2)ccc1Oc1ccnc2ccc(S(C)(=O)=O)cc12 [Compound 213, N-(1-cyclobutyl-1H-pyrazol-4-yl)-2-(3-methyl-4-((6-(methylsulfonyl)quinolin-4-yl)oxy)phenyl)acetamide]
< 2.5 | Cc1cc(CC(=O)Nc2cnn(C3CCCC3)c2)ccc1Oc1ccnc2ccc(S(C)(=O)=O)cc12 [Compound 214, N-(1-cyclopentyl-1H-pyrazol-4-yl)-2-(3-methyl-4-((6-(methylsulfonyl)quinolin-4-yl)oxy)phenyl)acetamide]
< 2.5 | COc1cc2nccc(Oc3ccc(CC(=O)Nc4cnn(C(C)(C)C)c4)cc3C)c2cc1S(C)(=O)=O [Compound 216, N-(1-(tert-butyl)-1H-pyrazol-4-yl)-2-(4-((7-methoxy-6-(methylsulfonyl)quinolin-4-yl)oxy)-3-methylphenyl) acetamide]
< 2.5 | CCOc1cc2nccc(Oc3ccc(CC(=O)Nc4cnn(C(C)(C)C)c4)cc3C)c2cc1S(C)(=O)=O [Compound 217, N-(1-(tert-butyl)-1H-pyrazol-4-yl)-2-(4-((7-ethoxy-6-(methylsulfonyl)quinolin-4-yl)oxy)-3-methylphenyl) acetamide]
< 2.5 | Cc1cc(CC(=O)Nc2cnn(C(C)(C)C)c2)ccc1Oc1ccnc2cc(OC(F)F)c(S(C)(=O)=O)cc12 [Compound 218, N-(1-(tert-butyl)-1H-pyrazol-4-yl)-2-(4-((7-(difluoromethoxy)-6-(methylsulfonyl)quinolin-4-yl)oxy)-3-methylphenyl) acetamide]
< 2.5 | Cc1cc(CC(=O)Nc2cnn(C(C)(C)C)c2)ccc1Oc1ccnc2ccc(OCC(C)(C)O)cc12 [Compound 226, N-(1-(tert-butyl)-1H-pyrazol-4-yl)-2-(4-((6-(2-hydroxy-2-methyl-propoxy)quinolin-4-yl)oxy)-3-methylphenyl) acetamide]
5.9 | Cc1cc(CC(=O)Nc2cnn(C(C)(C)C)c2)ccc1Oc1ccnc2ccc(OC3CNC3)cc12 [Compound 228, 2-(4-((6-(azetidin-3-yloxy)quinolin-4-yl)oxy)-3-methyl-pheny 1)-N-(1-(tert-butyl)-1H-pyrazol-4-yl)acetamide]

Further lines, the molecule ahead of its results:

SMILES | IC50 [nM]
Cc1cc(CC(=O)Nc2cnn(C(C)(C)C)c2)ccc1Oc1ccnc2ccc(OC3CC4(CNC4)C3)cc12 [Compound 211, 2-(4-((6-((2-azaspiro[3.3]heptan-6-yl)oxy)quinolin-4-yl)oxy)-3-methyl-phenyl)-N-(1-(tert-butyl)-1H-pyrazol-4-yl)acetamide] | < 2.5
Cc1cc(CC(=O)Nc2cnn(C(C)C)c2)ccc1Oc1ccnc2ccc(S(C)(=O)=O)cc12 [Compound 212, N-(1-isopropyl-1H-pyrazol-4-yl)-2-(3-methyl-4-((6-(methylsulfonyl)quinolin-4-yl)oxy)phenyl)acetamide] | < 2.5
Cc1cc(CC(=O)Nc2cnn(C(C)(C)C)c2)ccc1Oc1ccnc2cc(OCC(F)(F)F)c(S(C)(=O)=O)cc12 [Compound 219, N-(1-(tert-butyl)-1H-pyrazol-4-yl)-2-(3-methyl-4-((6-(methylsulfonyl)-7-(2,2,2-trifluoroethoxy)quinolin-4-yl)oxy)phenyl)acetamide] | < 2.5
Cc1cc(CC(=O)Nc2cnn(C(C)(C)C)c2)ccc1Oc1ccnc2ccc(OCCN)cc12 [Compound 222, 2-(4-((6-(2-aminoethoxy)quinolin-4-yl)oxy)-3-methyl-phenyl)-N-(1-(tert-butyl)-1H-pyrazol-4-yl)acetamide] | < 2.5
Cc1cc(CC(=O)Nc2cnn(C(C)(C)C)c2)ccc1Oc1ccnc2ccc(OCCO)cc12 [Compound 223, N-(1-(tert-butyl)-1H-pyrazol-4-yl)-2-(4-((6-(2-hydroxy-ethoxy)quinolin-4-yl)oxy)-3-methylphenyl) acetamide] | < 2.5
Cc1cc(CC(=O)Nc2cnn(C(C)(C)C)c2)ccc1Oc1ccnc2ccc(OCC(=O)O)cc12 [Compound 227, 2-((4-(4-(2-((1-(tert-butyl)-1H-pyrazol-4-yl)amino)-2-oxoethyl)-2-methyl-phenoxy)quinolin-6-yl)oxy)acetic acid] | < 2.5
